Assay results taken from patent publication US5210089A, “D-rhamnono-1,5-lactone” (Monsanto Company, priority 1992, dated 1993).
Entries after “also recorded” stand apart in the source; their conditions may differ.

Key:
[1] = molecular target: T1, Lysosomal α-mannosidase (Homo sapiens, UniProt O00754); assay: Human liver glycosidase assay, lysosomal α-mannosidase; format: biochemical; set-up: human liver extracts; from tissue; host or cells: human liver extracts; conditions: for inhibition at 1000 µM: 1 mM compound, 4-methylumbelliferyl-glycoside substrate; for inhibition at 1000 µM / IC50: human liver; for IC50: read-out: I50, lysosomal α-mannosidase
T1 sequence (O00754 50-1011): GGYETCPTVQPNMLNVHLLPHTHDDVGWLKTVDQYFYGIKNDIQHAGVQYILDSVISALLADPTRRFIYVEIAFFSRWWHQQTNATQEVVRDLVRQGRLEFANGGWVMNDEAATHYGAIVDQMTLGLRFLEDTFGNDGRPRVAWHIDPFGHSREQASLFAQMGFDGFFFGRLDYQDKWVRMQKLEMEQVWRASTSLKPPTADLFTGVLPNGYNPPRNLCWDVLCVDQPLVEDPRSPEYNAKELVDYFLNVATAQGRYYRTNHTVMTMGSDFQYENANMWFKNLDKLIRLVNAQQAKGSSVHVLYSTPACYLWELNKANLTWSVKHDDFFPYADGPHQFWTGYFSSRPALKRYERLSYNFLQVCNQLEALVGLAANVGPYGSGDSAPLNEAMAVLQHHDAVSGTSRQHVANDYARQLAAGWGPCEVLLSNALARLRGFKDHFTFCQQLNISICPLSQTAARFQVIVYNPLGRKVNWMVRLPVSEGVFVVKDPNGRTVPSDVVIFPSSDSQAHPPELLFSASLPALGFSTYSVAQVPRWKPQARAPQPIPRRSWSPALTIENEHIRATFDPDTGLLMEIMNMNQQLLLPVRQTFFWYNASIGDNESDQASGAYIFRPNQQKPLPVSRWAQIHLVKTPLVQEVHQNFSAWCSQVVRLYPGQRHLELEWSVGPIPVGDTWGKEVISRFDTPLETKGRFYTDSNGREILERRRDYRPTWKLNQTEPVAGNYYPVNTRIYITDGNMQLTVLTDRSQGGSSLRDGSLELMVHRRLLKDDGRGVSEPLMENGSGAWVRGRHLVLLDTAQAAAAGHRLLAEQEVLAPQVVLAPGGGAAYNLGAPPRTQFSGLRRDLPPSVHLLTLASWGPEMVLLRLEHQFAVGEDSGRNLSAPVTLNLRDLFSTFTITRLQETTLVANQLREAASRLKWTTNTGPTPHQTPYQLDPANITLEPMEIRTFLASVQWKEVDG
Protocol: (§1) Melting points were recorded on a Kofler hot block. Proton nuclear magnetic resonance (δH) spectra were recorded on Varian Gemini 200 (at 200 MHz), Bruker WH 300 (300 MHz), or Bruker AM 500 (500 MHz) spectrometers. Carbon nuclear magnetic resonance (δC) spectra were recorded on a Varian Gemini 200 (50 MHz) or a Bruker 250 (62.9 MHz) spectrometer. Multiplicities were assigned using DEPT sequence on the Gemini and by off resonance decoupling on the Bruker. Spectra run in D2 O were referenced to methanol as an internal standard. All chemical shifts are quoted on the δ-scale. Infrared spectra were recorded on a Perkin-Elmer 297, or on a Perkin-Elmer 781 spectrophotometer. Mass spectra were recorded on VG Micromass 30F, ZAB lF, Masslab 20-250 or Trio-1 GCMS (DB-5 column) spectrometers using desorption chemical ionization (NH3 DCI), electron impact (EI), chemical ionization (NH3 CI) and fast atom bombardment (FAB) techniques, as stated. […] Concentrations were given in g/100 ml. Hydrogenations were run under an atmosphere of hydrogen gas maintained by inflated balloon. Microanalyses were performed by the microanalysis service of the DysonPerrins laboratory, Oxford UK. Thin layer chromatography (t.l.c.) was carried out on aluminum sheets coated with 60F254 silica. Plates were developed using either 5% v/v concentrated sulphuric acid in methanol, 0.2% w/v cerium (IV) sulphate and 5% ammonium molybdate in 2M sulphuric acid and 0.5% ninhydrin in methanol. Flash chromatography was carried out using Sorbsil C60 40/60 silica. Ion-exchange chromatography was performed using Dowex 50W-X8 (H) and Sigma CG 400 (Cl) resins. The resins were washed with 2M hydrochloric acid and 2M sodium hydroxide solution, respectively, and subsequently with distilled water, prior to use. Solvents and commercially available reagents were dried and purified before use according to standard procedures; dichloromethane was refluxed over and distilled from calcium hydride, N,N-dimethylformamide was distilled under reduced pressure from calcium hydride, methanol was distilled from magnesium methoxide, pyridine was distilled from, and stored over, potassium hydroxide and tetrahydrofuran was distilled from a purple solution of sodium benzophenone ketyl immediately before use. Hexane was distilled at 68° C. before use to remove involatile fractions. 2,3-O-Isopropylidene-L-gulono-1,4-lactone (9) [H. Ogura et al., J. Oro. Chem. 37, 72 (1972); G. W. J. Fleet Tetrahedron 45, 319 (1989)]and 2,3-O-isopropylidene-D-gulono-1,4-lactone (15) [L. M. Lerner et al., J. Org. Chem. 33, 1780 (1968)]were prepared from D- and L-Chem. gulonolactones [purchased from the Sigma Chemical Company] as reported previously. See, e.g., Fleet, U.S. Pat. No. 4,861,892. Human liver glycosidases were assayed in the absence and presence [1 mM] of each of the compounds using the appropriate buffered 4-methylumbellifeeryl-glycosides as substrates, as described previously. [B. Winchest et al., Biochem. J. 265, 277 (1990)]. Naringinase was assayed using pnitrophenyl α-L-rhamnoside (1.75 mM) as substrates, according to Romero [C. Romero et al., Anal. Biochem. 149, 566 (1985)].
(§2) The enzymes included human liver glycosidases and naringinase. The latter enzyme is a readily available endo-L-rhamnosidase described by Romero et al., Anal. Biochem. 149, 566 (1985).

[2] = molecular target: T2, cytosolic β-glucosidase (Homo sapiens, UniProt Q9H227); assay: Human liver glycosidase assay, cytosolic β-glucosidase; format: biochemical; conditions: for inhibition at 1000 µM: 1 mM compound; for IC50: read-out: I50, cytosolic β-glucosidase
T2 construct: human liver extracts; from tissue; host or cells: human liver extracts
T2 sequence (Q9H227 1-469): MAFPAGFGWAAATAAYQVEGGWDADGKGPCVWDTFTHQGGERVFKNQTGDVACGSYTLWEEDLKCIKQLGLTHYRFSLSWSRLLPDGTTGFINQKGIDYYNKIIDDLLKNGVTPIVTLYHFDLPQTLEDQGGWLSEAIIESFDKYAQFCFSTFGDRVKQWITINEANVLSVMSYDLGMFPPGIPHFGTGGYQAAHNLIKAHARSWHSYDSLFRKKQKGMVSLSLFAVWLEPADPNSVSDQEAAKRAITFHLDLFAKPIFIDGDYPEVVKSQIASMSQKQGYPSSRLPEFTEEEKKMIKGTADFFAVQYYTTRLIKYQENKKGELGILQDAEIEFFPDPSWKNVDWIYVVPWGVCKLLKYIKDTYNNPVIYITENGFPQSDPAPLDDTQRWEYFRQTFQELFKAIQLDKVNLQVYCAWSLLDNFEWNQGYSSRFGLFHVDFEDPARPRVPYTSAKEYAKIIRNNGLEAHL
Protocol: as §1, with “Chem. 33, 1780 (1968)]were prepared from D- and L-Chem. gulonolactones [purchased from the Sigma Chemical Company] as reported previously. See, e.g., Fleet, U.S. Pat. No. 4,861,892. Human liver glycosidases were assayed in the absence and presence [1 mM] of each of the compounds using the appropriate buffered 4-methylumbellifeeryl-glycosides as substrates, as described previously. [B. Winchest et al., Biochem. J. 265, 277 (1990)]. Naringinase was assayed using pnitrophenyl α-L-rhamnoside (1.75 mM) as substrates, according to Romero [C. Romero et al., Anal. Biochem. 149, 566 (1985)].” left out
as §2

[3] = tested on: apricot β-glucosidase; conditions: literature; cited from earlier work
[4] = tested on: rat epidodymal α-mannosidases; conditions: literature; cited from earlier work

inhibition at 1000 µM [1] [%]	Structure (SMILES)	IC50 [1] [µM]	inhibition at 1000 µM [2] [%]	IC50 [2] [µM]	Inhibition of apricot β-glucosidase (in words) [3]	Inhibition of rat epididymal α-mannosidase (in words) [4]	Inhibition of α-mannosidase (in words) ([1]; listed as D-rhamnono-1,5-lactone)
86	C[C@H]1NC(=O)[C@@H](O)[C@@H](O)[C@@H]1O [D-Rhamno-1,5-lactam (6), 6-Deoxy-D-mannono-δ-lactam]	100	67	700			inhibitor of α- and β-mannosidases; also recorded: better inhibitor of α-mannosidase than deoxymannojirimycin (1)
0	C[C@@H]1NC(=O)[C@H](O)[C@H](O)[C@H]1O [L-Rhamno-1,5-lactam (8), 6-Deoxy-L-mannono-δ-lactam]						

Structure (SMILES)	inhibition at 1000 µM [1] [%]	IC50 [1] [µM]	inhibition at 1000 µM [2] [%]	IC50 [2] [µM]	Inhibition of apricot β-glucosidase (in words) [3]	Inhibition of rat epididymal α-mannosidase (in words) [4]	Inhibition of α-mannosidase (in words) ([1]; listed as D-rhamnono-1,5-lactone)
O=C1N[C@H](CO)[C@@H](O)[C@H](O)[C@@H]1O [Mannono-1,5-lactam (2), D-mannonolactam]	94	50	98	50	powerful inhibitor	powerful inhibitor	
